Laboratory results: paper PMC10321483 (Chemical Science, 2023)

Biological target: T1, BlaC (Mycobacterium tuberculosis, UniProt P9WKD3)
T1 construct: made in house; host or cells: E. coli
Experiment: BlaC fluorogenic inhibition assay with FC5 (dose-response)
Format: biochemical
Conditions: Table S5 HTS hits; 30 minute inhibitor pre-incubation; two independent repeats
Procedure: Two types of controls were used. […] In control 2, the BlaC mixture was substituted with the assay buffer. This mixture was incubated for 30 minutes at room temperature without shaking. […] Data were analysed using ActivityBase (IDBS).

T1 sequence (P9WKD3 35-307): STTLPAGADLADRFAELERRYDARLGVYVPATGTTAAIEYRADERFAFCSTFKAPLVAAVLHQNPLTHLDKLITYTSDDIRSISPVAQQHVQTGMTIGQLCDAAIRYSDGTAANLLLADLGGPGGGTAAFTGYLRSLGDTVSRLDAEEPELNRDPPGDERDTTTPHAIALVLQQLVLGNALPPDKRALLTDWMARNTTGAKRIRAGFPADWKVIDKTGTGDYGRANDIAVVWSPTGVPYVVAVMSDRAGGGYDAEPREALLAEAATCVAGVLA

| Compound | pIC50 BlaC |
| --- | --- |
| N#Cn1c(-c2ccnnc2)nc2ccccc21 [Compound 24] | < 4.0 |
| Cc1ccc(C=CC(=O)Nc2ccccc2C(N)=O)o1 [Compound 11] | < 4.0 |
| N#Cn1c(-c2cncnc2)nc2ccccc21 [Compound 25] | < 4.0 |
| N#Cn1c(-c2ccncc2)nc2ccc(-c3ccncc3)cc21 [Compound 34] | < 4.0 |

Same assay, conditions: pIC50 BlaC, Table S5 HTS hits; 30 minute inhibitor pre-incubation; two independent repeats

| Compound | IC50 |
| --- | --- |
| COc1cccc(NC(=O)/C(Cl)=C(\Cl)S(=O)(=O)Cc2ccccc2Cl)n1 [Compound 8] | > 100000 nM |
| N#Cn1c(-c2ccc(F)cc2C(F)(F)F)nc2ccccc21 [Compound 22] | > 100000 nM |
| CS(=O)(=O)c1ccc(F)c(N2C(=O)C=CC2=O)c1 [Compound 4] | 60300 nM |
| NC(=O)C=CC(=O)Nc1ccc(Cl)cc1 [Compound 13] | > 100000 nM |
| N#Cn1c(-c2cnc(-c3cccs3)nc2)nc2ccccc21 [Compound 31] | 11200 nM |
| CCC(C)C(NC(=O)OCc1ccccc1)C(=O)CCl (stereo not drawn) [Compound 2] | > 100000 nM |

Biological target: T2, LdtMt2 (Mycobacterium tuberculosis, UniProt I6Y9J2)
T2 sequence (I6Y9J2 56-408): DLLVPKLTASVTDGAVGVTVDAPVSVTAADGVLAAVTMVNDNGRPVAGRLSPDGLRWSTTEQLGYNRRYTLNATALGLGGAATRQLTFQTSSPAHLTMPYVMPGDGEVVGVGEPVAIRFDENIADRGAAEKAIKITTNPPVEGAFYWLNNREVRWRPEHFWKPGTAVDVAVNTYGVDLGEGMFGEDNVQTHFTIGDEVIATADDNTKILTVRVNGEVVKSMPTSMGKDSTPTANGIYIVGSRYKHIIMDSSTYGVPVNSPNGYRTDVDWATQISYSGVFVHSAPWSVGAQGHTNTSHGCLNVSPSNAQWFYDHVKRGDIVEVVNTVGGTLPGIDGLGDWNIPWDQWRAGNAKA
Experiment: biochemical
Format: biochemical
Parameters: made in house; host or cells: E. coli
Conditions: not given

| Compound | LE (ligand efficiency) |
| --- | --- |
| N#Cn1c(-c2ccnnc2)nc2ccccc21 [Compound 24] | 0.66 |
| Cc1ccc(C=CC(=O)Nc2ccccc2C(N)=O)o1 [Compound 11] | 0.56 |
| N#Cn1c(-c2ccc3nccnc3c2)nc2ccccc21 [Compound 26] | 0.53 |
| N#Cn1c(-c2cncnc2)nc2ccccc21 [Compound 25] | 0.66 |
| CC(C)(C)OC(=O)Nc1ccc(N2C(=O)C=CC2=O)cc1 [Compound 6] | 0.52 |
| N#Cn1c(-c2ccncc2)nc2ccc(-c3ccncc3)cc21 [Compound 34] | 0.49 |
| N#Cn1c(-c2ccc(OC3CCOCC3)cc2)nc2ccccc21 [Compound 32] | 0.47 |
| Cc1ccc(C=CC(=O)Nc2ccc(S(N)(=O)=O)cc2)o1 [Compound 9] | 0.53 |
| N#Cn1c(-c2ccc(-c3nccs3)cc2)nc2ccccc21 [Compound 29] | 0.51 |

Same assay, conditions: Table S5; for LdtMt2

| Compound | LE (ligand efficiency) |
| --- | --- |
| COc1cccc(NC(=O)/C(Cl)=C(\Cl)S(=O)(=O)Cc2ccccc2Cl)n1 [Compound 8] | 0.43 |
| N#Cn1c(-c2ccc(F)cc2C(F)(F)F)nc2ccccc21 [Compound 22] | 0.51 |
| CS(=O)(=O)c1ccc(F)c(N2C(=O)C=CC2=O)c1 [Compound 4] | 0.62 |
| NC(=O)C=CC(=O)Nc1ccc(Cl)cc1 [Compound 13] | 0.75 |
| N#Cn1c(-c2cnc(-c3cccs3)nc2)nc2ccccc21 [Compound 31] | 0.51 |
| CCC(C)C(NC(=O)OCc1ccccc1)C(=O)CCl (stereo not drawn) [Compound 2] | 0.56 |

Same assay, conditions: Table S5 HTS hits; 30 minute inhibitor pre-incubation; two independent repeats; read-out: pIC50 LdtMt2 (converted)

| Compound | IC50 |
| --- | --- |
| COc1cccc(NC(=O)/C(Cl)=C(\Cl)S(=O)(=O)Cc2ccccc2Cl)n1 [Compound 8] | 69.2 nM |
| N#Cn1c(-c2ccc(F)cc2C(F)(F)F)nc2ccccc21 [Compound 22] | 29.5 nM |
| CS(=O)(=O)c1ccc(F)c(N2C(=O)C=CC2=O)c1 [Compound 4] | 87.1 nM |
| NC(=O)C=CC(=O)Nc1ccc(Cl)cc1 [Compound 13] | 417 nM |
| N#Cn1c(-c2cnc(-c3cccs3)nc2)nc2ccccc21 [Compound 31] | 47.9 nM |
| CCC(C)C(NC(=O)OCc1ccccc1)C(=O)CCl (stereo not drawn) [Compound 2] | 77.6 nM |

Biological target: T2, LdtMt2
Experiment: Rate constant of covalent target inactivation (kinact/KI), endpoint competition assay with probe 2
Format: biochemical
Parameters: made in house; host or cells: E. coli
Conditions: not given

| Compound | kinact/KI |
| --- | --- |
| COc1cccc(NC(=O)/C(Cl)=C(\Cl)S(=O)(=O)Cc2ccccc2Cl)n1 [Compound 8] | 91.6 ± 2 M⁻¹ s⁻¹ |
| N#Cn1c(-c2ccc(F)cc2C(F)(F)F)nc2ccccc21 [Compound 22] | 55.1 ± 3 M⁻¹ s⁻¹ |
| CS(=O)(=O)c1ccc(F)c(N2C(=O)C=CC2=O)c1 [Compound 4] | 36.5 ± 7.9 M⁻¹ s⁻¹ |
| CCC(C)C(NC(=O)OCc1ccccc1)C(=O)CCl (stereo not drawn) [Compound 2] | 68.4 ± 3.5 M⁻¹ s⁻¹ |

Same assay, conditions: 100 nM LdtMt2, 10 µM probe 2, 3 h incubation; n=4

| Compound | kinact/KI |
| --- | --- |
| N#Cn1c(-c2ccnnc2)nc2ccccc21 [Compound 24] | 158 ± 5.7 M⁻¹ s⁻¹ |
| Cc1ccc(C=CC(=O)Nc2ccccc2C(N)=O)o1 [Compound 11] | 172 ± 6.0 M⁻¹ s⁻¹ |
| N#Cn1c(-c2ccc3nccnc3c2)nc2ccccc21 [Compound 26] | 65.0 ± 4.4 M⁻¹ s⁻¹ |
| N#Cn1c(-c2cncnc2)nc2ccccc21 [Compound 25] | 77.5 ± 6.0 M⁻¹ s⁻¹ |
| CC(C)(C)OC(=O)Nc1ccc(N2C(=O)C=CC2=O)cc1 [Compound 6] | 127 ± 7.7 M⁻¹ s⁻¹ |
| N#Cn1c(-c2ccncc2)nc2ccc(-c3ccncc3)cc21 [Compound 34] | 68.4 ± 2.7 M⁻¹ s⁻¹ |
| N#Cn1c(-c2ccc(OC3CCOCC3)cc2)nc2ccccc21 [Compound 32] | 86.3 ± 2.6 M⁻¹ s⁻¹ |
| Cc1ccc(C=CC(=O)Nc2ccc(S(N)(=O)=O)cc2)o1 [Compound 9] | 90.7 ± 4.7 M⁻¹ s⁻¹ |
| N#Cn1c(-c2ccc(-c3nccs3)cc2)nc2ccccc21 [Compound 29] | 1164 ± 105 M⁻¹ s⁻¹ |

Same assay, conditions: 100 nM LdtMt2, 10 µM probe 2, 3 h incubation; n=4; read-out: kinact/KI

| Compound | kinact/KI |
| --- | --- |
| NC(=O)C=CC(=O)Nc1ccc(Cl)cc1 [Compound 13] | 6.48 ± 0.11 M⁻¹ s⁻¹ |
| N#Cn1c(-c2cnc(-c3cccs3)nc2)nc2ccccc21 [Compound 31] | 609 ± 11 M⁻¹ s⁻¹ |

Biological target: T2, LdtMt2
Experiment: biochemical
Format: binding
Parameters: made in house; host or cells: E. coli
Conditions: not given
Remark: another data set of the same source
Procedure: LdtMt2 (5 μM) was incubated with the inhibitor (500 μM) in assay buffer (50 mM tris pH 7.5) for 30 minutes at room temperature in 96-well white PCR plates (25 μL final volume, Starlab). SYPRO Orange (final concentration 6×, according to manufacturer's definition, Invitrogen) was then added and the plate was sealed using a transparent plastic film (Polyolefin StarSeal, Starlab). Fluorescence was monitored (with λex = 492 nm and λem = 610 nm) using a CFX96 Touch Real-Time PCR Detection System (Bio-Rad), while the temperature was increased from 20 to 95 °C in increments of 0.2 °C. Melting temperatures (Tms) were determined using the CFX Maestro Software (Bio-Rad).

| Compound | ΔTm: difference in melting point of LdtMt2 relative to unreacted LdtMt2 (43.8 °C) | lowered the melting temperature of LdtMt2 by |
| --- | --- | --- |
| Cc1ccc(C=CC(=O)Nc2ccccc2C(N)=O)o1 [Compound 11] | +0.2 |  |
| N#Cn1c(-c2ccc3nccnc3c2)nc2ccccc21 [Compound 26] | -2.1 | 2.1 °C |
| CC(C)(C)OC(=O)Nc1ccc(N2C(=O)C=CC2=O)cc1 [Compound 6] | +1.7 °C |  |
| N#Cn1c(-c2ccncc2)nc2ccc(-c3ccncc3)cc21 [Compound 34] | -1.7 |  |
| N#Cn1c(-c2ccc(OC3CCOCC3)cc2)nc2ccccc21 [Compound 32] | -1.5 |  |
| N#Cn1c(-c2ccc(-c3nccs3)cc2)nc2ccccc21 [Compound 29] | -0.9 |  |

Same assay, conditions: 5 µM LdtMt2, 500 µM inhibitor, SYPRO Orange, 50 mM Tris pH 7.5

| Compound | Tm: melting point of LdtMt2 after pre-incubation with the compound |
| --- | --- |
| N#Cn1c(-c2ccc(F)cc2C(F)(F)F)nc2ccccc21 [Compound 22] | 42.5 ± 0.09 °C |
| CS(=O)(=O)c1ccc(F)c(N2C(=O)C=CC2=O)c1 [Compound 4] | 45.6 ± 0.28 °C |
| NC(=O)C=CC(=O)Nc1ccc(Cl)cc1 [Compound 13] | 44.8 ± 0.00 °C |
| N#Cn1c(-c2cnc(-c3cccs3)nc2)nc2ccccc21 [Compound 31] | 42.1 ± 0.10 °C |
| CCC(C)C(NC(=O)OCc1ccccc1)C(=O)CCl (stereo not drawn) [Compound 2] | 43.7 ± 0.09 °C |

Same assay, conditions: pH 7.5

| Compound | Tm: melting point of LdtMt2 after pre-incubation with the compound |
| --- | --- |
| CC(C)(C)OC(=O)Nc1ccc(N2C(=O)C=CC2=O)cc1 [Compound 6] | 45.5 ± 0.09 °C |
| Cc1ccc(C=CC(=O)Nc2ccc(S(N)(=O)=O)cc2)o1 [Compound 9] | 43.1 ± 0.09 °C |

Same assay, conditions: pH 7.5; in °C (unit assumed)

| Compound | Tm: melting point of LdtMt2 after pre-incubation with the compound |
| --- | --- |
| N#Cn1c(-c2ccnnc2)nc2ccccc21 [Compound 24] | 42.0 ± 0.00 |
| Cc1ccc(C=CC(=O)Nc2ccccc2C(N)=O)o1 [Compound 11] | 44.0 ± 0.16 |
| N#Cn1c(-c2ccc3nccnc3c2)nc2ccccc21 [Compound 26] | 41.7 ± 0.09 |
| N#Cn1c(-c2ccncc2)nc2ccc(-c3ccncc3)cc21 [Compound 34] | 42.1 ± 0.09 |
| N#Cn1c(-c2ccc(OC3CCOCC3)cc2)nc2ccccc21 [Compound 32] | 42.3 ± 0.09 |
| N#Cn1c(-c2ccc(-c3nccs3)cc2)nc2ccccc21 [Compound 29] | 42.9 ± 0.19 |

Same assay, conditions: read-out: ΔTm: difference in melting point of LdtMt2 relative to unreacted LdtMt2 (43.8 °C)

| Compound | ΔTm at 500 µM |
| --- | --- |
| COc1cccc(NC(=O)/C(Cl)=C(\Cl)S(=O)(=O)Cc2ccccc2Cl)n1 [Compound 8] | 0.7 °C |
| N#Cn1c(-c2ccc(F)cc2C(F)(F)F)nc2ccccc21 [Compound 22] | -1.3 °C |
| CS(=O)(=O)c1ccc(F)c(N2C(=O)C=CC2=O)c1 [Compound 4] | 1.8 °C |
| NC(=O)C=CC(=O)Nc1ccc(Cl)cc1 [Compound 13] | 1 °C |
| N#Cn1c(-c2cnc(-c3cccs3)nc2)nc2ccccc21 [Compound 31] | -1.7 °C |
| CCC(C)C(NC(=O)OCc1ccccc1)C(=O)CCl (stereo not drawn) [Compound 2] | -0.1 °C |
